A word on the Ki: it is a measure of affinity in units of concentration, obtained from inhibition or displacement. Low readings indicate tighter binding, high ones weaker binding.

The values that follow come from ChEMBL document CHEMBL1133357, “Inhibition of neuraminidase with neuraminic acid C-glycosides” (Bioorg Med Chem Lett, 2000).

A value given as a limit tells only on which side of the number the result lay.

The test is described as follows: The compound was tested for its inhibitory activity against bacterial neuraminidase. More on the design: species or system Clostridium perfringens.
`CC(=O)NC1C(O)CC(C(=O)O)([C@@H](O)C2C(O)C(CO)OC(OC(=O)c3ccccc3)C2O)OC1C(O)C(O)CO` (stereo not given in full) registered an inhibitory constant (Ki) of 110 µM. In turn, `CCCCCCCC(O)[C@]1(C(=O)O)C[C@@H](O)[C@@H](NC(C)=O)C(C(O)C(O)CO)O1` (stereo not given in full) displayed an inhibition constant (Ki) of 16 µM.

In turn, `CC(=O)N[C@H]1C(C(O)C(O)CO)O[C@](C(=O)O)(C(C)(C)O)C[C@H]1O` (stereo not given in full) registered a Ki of 29 µM. `COC1OC(CO)C(O)C([C@@H](O)C2(C(=O)O)CC(O)C(NC(C)=O)C(C(O)C(O)CO)O2)C1O` (stereo not given in full) returned a Ki greater than 1000 µM. With `CC(=O)NC1C(O)CC(C(=O)O)([C@H](O)C2C(O)C(CO)OC(OC(=O)c3ccccc3)C2O)OC1C(O)C(O)CO` (stereo not given in full), the Ki was 229 µM.
